# Measured values: US9695155B2, “Herbicidal substituted pyrimidinyloxy benzene compounds” (E. I. DU PONT DE NEMOURS AND COMPANY, priority 2013, dated 2017)
# Legend:
# barnyardgrass [1] = assay: Test A preemergence; assay type: in vivo, Echinochloa crus-galli
# Method in brief: (§1)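 Visual 0–100 rating (100 = complete control) taken about 10 d post-treatment relative to untreated checks. Preemergence: directed soil spray on sown loam/sand pots. Postemergence: seedlings 2–10 cm, 1–2 leaf. Non-phytotoxic solvent formulation with surfactant.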
# kochia [2] = assay: Test A preemergence; assay type: in vivo, Kochia scoparia
# Method in brief: as §1
# ragweed [3] = assay: Test A preemergence; assay type: in vivo, Ambrosia elatior
# Method in brief: as §1
# Italian ryegrass [4] = assay: Test A preemergence; assay type: in vivo, Lolium multiflorum
# Method in brief: as §1
# giant foxtail [5] = assay: Test A preemergence; assay type: in vivo, Setaria faberii
# Method in brief: as §1
# pigweed [6] = assay: Test A preemergence; assay type: in vivo, Amaranthus retroflexus
# Method in brief: as §1
# barnyardgrass [7] = assay: Test A postemergence; assay type: in vivo, Echinochloa crus-galli; conditions: 0 to 100 scale, 0 no effect, 100 complete control
# Method in brief: as §1
# kochia [8] = assay: Test A postemergence; assay type: in vivo, Kochia scoparia; conditions: 0 to 100 scale, 0 no effect, 100 complete control
# Method in brief: as §1
# ragweed [9] = assay: Test A postemergence; assay type: in vivo, Ambrosia elatior; conditions: 0 to 100 scale, 0 no effect, 100 complete control
# Method in brief: as §1
# Italian ryegrass [10] = assay: Test A postemergence; assay type: in vivo, Lolium multiflorum; conditions: 0 to 100 scale, 0 no effect, 100 complete control
# Method in brief: as §1
# giant foxtail [11] = assay: Test A postemergence; assay type: in vivo, Setaria faberii; conditions: 0 to 100 scale, 0 no effect, 100 complete control
# Method in brief: as §1
# pigweed [12] = assay: Test A postemergence; assay type: in vivo, Amaranthus retroflexus; conditions: 0 to 100 scale, 0 no effect, 100 complete control
# Method in brief: as §1
# wheat = assay: Test A postemergence; assay type: in vivo, Triticum aestivum; conditions: 0 to 100 scale, 0 no effect, 100 complete control
# Method in brief: as §1
# corn = assay: Test A postemergence; assay type: in vivo, Zea mays; conditions: 0 to 100 scale, 0 no effect, 100 complete control
# Method in brief: as §1
# blackgrass = assay: Test A postemergence; assay type: in vivo, Alopecurus myosuroides; conditions: 0 to 100 scale, 0 no effect, 100 complete control
# Method in brief: as §1
# galium = assay: Test A postemergence; assay type: in vivo, Galium aparine; conditions: 0 to 100 scale, 0 no effect, 100 complete control
# Method in brief: as §1
# rice = assay: Test B flooded paddy test; assay type: in vivo, Oryza sativa; conditions: Flood, 250 g ai/ha, 0 to 100 scale where 0 is no effect and 100 is complete control
# Method in brief: (§2)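 Compound added straight to paddy water, with pots kept flooded 3 cm above soil, on plants grown to the 2-leaf stage. Visual scoring 0-100 (100 = complete control) against untreated controls after 13 to 15 greenhouse days.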
# sedge, umbrella = assay: Test B flooded paddy test; assay type: in vivo, Cyperus difformis; conditions: Flood, 250 g ai/ha, 0 to 100 scale where 0 is no effect and 100 is complete control
# Method in brief: as §2
# Heteranthera limosa = assay: Test B flooded paddy test; assay type: in vivo; conditions: Flood, 250 g ai/ha, 0 to 100 scale where 0 is no effect and 100 is complete control
# Method in brief: as §2
# barnyardgrass [13] = assay: Test B flooded paddy test; assay type: in vivo, Echinochloa crus-galli; conditions: Flood, 250 g ai/ha, 0 to 100 scale where 0 is no effect and 100 is complete control
# Method in brief: as §2
# [14] = 31 g ai/ha, 0 to 100 scale where 0 is no effect and 100 is complete control, visual, approximately 10 days
# [15] = 1000 g ai/ha, 0 to 100 scale, 0 no effect, 100 complete control, approx. 10 days
smiles,measurement,setting,value
NC(=O)c1cccc(Oc2ncc(Cl)cn2)c1-n1cc(C(F)(F)F)cn1 [Compound 278],"Plant response rating, Barnyardgrass",barnyardgrass [1]; [14],0
same,"Barnyardgrass plant response rating (0 to 100 scale, 0 is no effect, 100 is complete control)",barnyardgrass [1]; 125 g ai/ha,0
same,"Plant response rating, Kochia",kochia [2]; [14],0
same,Kochia plant response rating (0 to 100 scale),kochia [2]; 125 g ai/ha,0
same,"Plant response rating, Ragweed",ragweed [3]; [14],0
same,Ragweed plant response rating (0 to 100 scale),ragweed [3]; 125 g ai/ha,0
same,"Plant response rating, Ryegrass, Italian",Italian ryegrass [4]; [14],0
same,"Ryegrass, Italian plant response rating (0 to 100 scale)",Italian ryegrass [4]; 125 g ai/ha,0
same,"Plant response rating, Foxtail, Giant",giant foxtail [5]; [14],0
same,"Foxtail, Giant plant response rating (0 to 100 scale)",giant foxtail [5]; 125 g ai/ha,0
same,"Plant response rating, Pigweed",pigweed [6]; [14],0
same,Pigweed plant response rating (0 to 100 scale),pigweed [6]; 125 g ai/ha,10
same,"Plant response rating, Barnyardgrass",barnyardgrass [7]; 31 g ai/ha,0
same,"Plant response rating, Barnyardgrass",barnyardgrass [7]; 125 g ai/ha,0
same,"Plant response rating, Kochia",kochia [8]; 31 g ai/ha,0
same,"Plant response rating, Kochia",kochia [8]; 125 g ai/ha,0
same,"Plant response rating, Ragweed",ragweed [9]; 31 g ai/ha,0
same,"Plant response rating, Ragweed",ragweed [9]; 125 g ai/ha,10
same,"Plant response rating, Ryegrass, Italian",Italian ryegrass [10]; 31 g ai/ha,0
same,"Plant response rating, Ryegrass, Italian",Italian ryegrass [10]; 125 g ai/ha,0
same,"Plant response rating, Foxtail, Giant",giant foxtail [11]; 31 g ai/ha,0
same,"Plant response rating, Foxtail, Giant",giant foxtail [11]; 125 g ai/ha,0
same,"Plant response rating, Pigweed",pigweed [12]; 31 g ai/ha,0
same,"Plant response rating, Pigweed",pigweed [12]; 125 g ai/ha,10
same,"Plant response rating, Wheat",wheat; 31 g ai/ha,0
same,"Plant response rating, Wheat",wheat; 125 g ai/ha,0
same,"Plant response rating, Corn",corn; 31 g ai/ha,0
same,"Plant response rating, Corn",corn; 125 g ai/ha,0
same,"Plant response rating, Blackgrass",blackgrass; 31 g ai/ha,0
same,"Plant response rating, Blackgrass",blackgrass; 125 g ai/ha,0
same,"Plant response rating, Galium",galium; 31 g ai/ha,0
same,"Plant response rating, Galium",galium; 125 g ai/ha,10
same,"Plant response rating, Rice",rice,0
same,"Plant response rating, Sedge, Umbrella","sedge, umbrella",0
same,"Plant response rating, Ducksalad",Heteranthera limosa,0
same,"Plant response rating, Barnyardgrass",barnyardgrass [13],0
"FC(F)(F)c1cnn(-c2c(Oc3ncc(Cl)cn3)cccc2-c2nnco2)c1 [Compound 298, 2-[3-[(5-chloro-2-pyrimidinyl)oxy]-2-[4-(trifluoromethyl)-1H-pyrazol-1-yl]phenyl]-1,3,4-oxadiazole]",pest or weed control at 1000 g/ha,"barnyardgrass [1]; Echinochloa crus-galli, pre-emergence, 240 h, 1000 g ai/ha, 0 to 100 scale, 0 no effect, 100 complete control, approx. 10 days, read-out: Barnyardgrass plant response rating",100%
same,Kochia plant response rating,kochia [2]; [15],90
same,Ragweed plant response rating,ragweed [3]; [15],90
same,"Ryegrass, Italian plant response rating",Italian ryegrass [4]; [15],50
same,pest or weed control at 1000 g/ha,"giant foxtail [5]; Setaria faberi, pre-emergence, 240 h, 1000 g ai/ha, 0 to 100 scale, 0 no effect, 100 complete control, approx. 10 days, read-out: Foxtail, Giant plant response rating",100%
same,pest or weed control at 1000 g/ha,"pigweed [6]; Amaranthus retroflexus, pre-emergence, 240 h, 1000 g ai/ha, 0 to 100 scale, 0 no effect, 100 complete control, approx. 10 days, read-out: Pigweed plant response rating",100%
same,pest or weed control at 1000 g/ha,"barnyardgrass [7]; Echinochloa crus-galli, post-emergence, 240 h, 1000 g ai/ha, read-out: Plant response rating Barnyardgrass",90%
same,"Plant response rating, Kochia",kochia [8]; 1000 g ai/ha,100
same,"Plant response rating, Ragweed",ragweed [9]; 1000 g ai/ha,90
same,"Plant response rating, Ryegrass, Italian",Italian ryegrass [10]; 1000 g ai/ha,70
same,pest or weed control at 1000 g/ha,"giant foxtail [11]; Setaria faberi, post-emergence, 240 h, 1000 g ai/ha, read-out: Plant response rating Foxtail, Giant",90%
same,pest or weed control at 1000 g/ha,"pigweed [12]; Amaranthus retroflexus, post-emergence, 240 h, 1000 g ai/ha, read-out: Plant response rating Pigweed",100%
same,plant injury at 1000 g/ha,"wheat; Triticum aestivum, post-emergence, 240 h, 1000 g ai/ha, read-out: Plant response rating Wheat",40%
same,plant injury at 1000 g/ha,"corn; Zea mays, post-emergence, 240 h, 1000 g ai/ha, read-out: Plant response rating Corn",70%
same,"Plant response rating, Blackgrass",blackgrass; 1000 g ai/ha,80
same,"Plant response rating, Galium",galium; 1000 g ai/ha,80
same,plant injury at 250 g/ha,"rice; Oryza sativa, read-out: Plant response rating, Rice",0%
same,pest or weed control at 250 g/ha,"sedge, umbrella; Cyperus difformis, read-out: Plant response rating, Sedge, Umbrella",30%
same,pest or weed control at 250 g/ha,"Heteranthera limosa; Heteranthera limosa, read-out: Plant response rating, Ducksalad",0%
same,pest or weed control at 250 g/ha,"barnyardgrass [13]; Echinochloa crus-galli, read-out: Plant response rating, Barnyardgrass",0%
